Results on 11 molecules are retold here after ChEMBL document CHEMBL5120937, “Design, Synthesis, and Biological Activity of l-1'-Homologated Adenosine Derivatives” (ACS Med Chem Lett, 2022).

Molecules are shown by their SMILES.

Test [1] concerns the target T1, Peroxisome proliferator-activated receptor alpha (Homo sapiens) (UniProt Q07869).
T1 sequence (whole entry): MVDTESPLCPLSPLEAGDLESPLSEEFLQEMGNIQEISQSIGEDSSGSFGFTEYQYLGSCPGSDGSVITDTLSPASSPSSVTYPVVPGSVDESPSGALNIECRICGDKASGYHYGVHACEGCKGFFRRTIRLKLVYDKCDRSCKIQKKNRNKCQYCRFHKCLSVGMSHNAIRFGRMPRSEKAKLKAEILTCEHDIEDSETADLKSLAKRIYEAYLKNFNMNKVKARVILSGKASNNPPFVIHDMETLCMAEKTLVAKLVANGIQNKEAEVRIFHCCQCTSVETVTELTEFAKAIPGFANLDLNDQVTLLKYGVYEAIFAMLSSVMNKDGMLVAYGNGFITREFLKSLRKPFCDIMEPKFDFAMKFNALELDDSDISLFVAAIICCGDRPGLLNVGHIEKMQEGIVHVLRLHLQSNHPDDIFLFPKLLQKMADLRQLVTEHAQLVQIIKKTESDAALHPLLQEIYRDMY
Description: Binding affinity to PPARalpha (unknown origin) at 10 uM by TR-FRET based LanthaScreen competitive binding assay relative to control.

For test [2], the target named is T2, Peroxisome proliferator-activated receptor gamma (Homo sapiens) (UniProt P37231).
T2 sequence (whole entry): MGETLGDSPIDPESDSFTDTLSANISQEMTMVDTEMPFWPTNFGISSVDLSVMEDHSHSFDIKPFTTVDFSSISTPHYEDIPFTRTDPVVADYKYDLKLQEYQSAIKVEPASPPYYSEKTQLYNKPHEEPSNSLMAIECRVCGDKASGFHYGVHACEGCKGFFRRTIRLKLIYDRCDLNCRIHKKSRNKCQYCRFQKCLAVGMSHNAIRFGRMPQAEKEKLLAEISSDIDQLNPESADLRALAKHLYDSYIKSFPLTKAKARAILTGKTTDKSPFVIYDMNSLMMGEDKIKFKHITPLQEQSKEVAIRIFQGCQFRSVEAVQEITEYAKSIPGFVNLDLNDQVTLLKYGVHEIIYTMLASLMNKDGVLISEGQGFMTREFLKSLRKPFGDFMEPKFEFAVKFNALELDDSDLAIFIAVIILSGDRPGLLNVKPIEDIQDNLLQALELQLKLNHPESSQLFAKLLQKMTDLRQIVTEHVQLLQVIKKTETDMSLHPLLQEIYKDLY
Description: Binding affinity to PPARgamma (unknown origin) at 10 uM by TR-FRET based LanthaScreen competitive binding assay relative to control.

The target of test [3] is T3, Peroxisome proliferator-activated receptor delta (Homo sapiens, UniProt Q03181).
T3 sequence (Q03181 whole entry): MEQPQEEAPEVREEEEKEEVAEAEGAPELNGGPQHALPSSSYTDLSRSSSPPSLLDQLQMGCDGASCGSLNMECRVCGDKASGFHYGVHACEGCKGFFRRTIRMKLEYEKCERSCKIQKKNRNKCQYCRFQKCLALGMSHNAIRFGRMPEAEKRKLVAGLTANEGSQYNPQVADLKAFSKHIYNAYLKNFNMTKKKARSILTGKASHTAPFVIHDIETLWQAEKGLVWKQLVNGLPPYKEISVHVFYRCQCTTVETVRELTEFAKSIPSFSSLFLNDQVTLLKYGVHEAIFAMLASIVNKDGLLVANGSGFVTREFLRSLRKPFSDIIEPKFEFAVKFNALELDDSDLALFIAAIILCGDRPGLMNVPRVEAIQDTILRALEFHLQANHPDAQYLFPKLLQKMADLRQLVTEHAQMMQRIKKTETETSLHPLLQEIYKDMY
Description: Binding affinity to PPARdelta (unknown origin) by TR-FRET based LanthaScreen competitive binding assay

The test system of test [4] is Mesenchymal stem cells. The test is described as follows: Induction of adipogenesis in human differentiated BMMSC cells assessed as fold increase in adiponectin production at 10 uM measured on 5 day in presence of IDX induction medium by ELISA. It counts as functional.
In test [5] the target is T4, Peroxisome proliferator-activated receptor delta (Homo sapiens) (UniProt Q03181).
T4 sequence (whole entry): T3 sequence (Q03181 whole entry)
Description: Binding affinity to PPARdelta (unknown origin) at 10 uM by TR-FRET based LanthaScreen competitive binding assay relative to control.

In test [6] the test system is Mesenchymal stem cells. Description: cells. The settings on record: Homo sapiens, 120 h.
Description: Induction of adipogenesis in human differentiated BMMSC cells assessed as increase in adiponectin secretion and measured on 5 day in presence of IDX induction medium by ELISA

On to `O[C@H]1[C@@H](O)CO[C@@H]1Cn1cnc2c(NCc3cccc(Br)c3)nc(Cl)nc21`, for which the values for the Activity in test [1] and in test [2] were 8.7% and 25.5%, respectively. Also, the Ki in test [3] amounted to 3.4 µM.
As to `O[C@H]1[C@@H](O)CO[C@@H]1Cn1cnc2c(NCc3cccc(I)c3)nc(Cl)nc21`, the Activity in test [1] is 17.2%.
On to `COc1ccc(Cl)cc1C(=O)NCCc1ccc(S(=O)(=O)NC(=O)NC2CCCCC2)cc1` [GLYBURIDE], for which the “fold change (FC)” value in test [4] was 6.2.
As for `O[C@H]1[C@@H](O)CO[C@@H]1Cn1cnc2c(NCc3cccc(F)c3)nc(Cl)nc21`, the Activity was 14.5% in test [1], 6.3% in test [2] and 29.5% in test [5].
As for `O[C@H]1[C@@H](O)CO[C@@H]1Cn1cnc2c(NCc3cccc(I)c3)ncnc21`, the Activity in test [1] came to 13.2%; in test [2], 3.9%; in test [5], 16.3%.
For `O[C@H]1[C@@H](O)CO[C@@H]1Cn1cnc2c(NCc3cccc(F)c3)ncnc21` the same measures were 7.6%, 11.5% and 8%.
On to `O[C@H]1[C@@H](O)CO[C@@H]1Cn1cnc2c(NCc3cccc(Cl)c3)ncnc21`, for which the Activity in test [1] turned out to be 3.1%; in test [2], 5.9%; in test [5] it was 21.5%.
In the case of `O[C@H]1[C@@H](O)CO[C@@H]1Cn1cnc2c(NCc3cccc(Cl)c3)nc(Cl)nc21`, the Activity in test [1] came out at 19.1%; in test [2], 10.7%; in test [5] (filed as antagonist), 46.3%.
`O[C@H]1[C@@H](O)CO[C@@H]1Cn1cnc2c(NCc3cccc(Br)c3)ncnc21`: the results for the Activity in test [1], in test [2] and in test [5] were 3.8%, 12.5% and 1.2%, respectively.
In turn, `O[C@@H]1[C@H](O)CO[C@H]1Cn1cnc2c(NCc3cccc(I)c3)nc(Cl)nc21` came in with an Activity in test [1] of 3.9%.
On to `CCc1ccc(CCOc2ccc(CC3SC(=O)NC3=O)cc2)nc1` (stereo unspecified) [PIOGLITAZONE], for which, in test [4], the “fold change (FC)” value was determined as 7.8. This molecule displayed an EC50 in test [6] of 0.9 µM.
